These results are taken from paper PMC7211837, “Design, synthesis, molecular modelling and in vitro screening of monoamine oxidase inhibitory activities of novel quinazolyl hydrazine derivatives” (Royal Society Open Science, 2020).

Series [1] deals with T1, membrane-bound human MAO-A (Homo sapiens, UniProt P21397).
T1 sequence (P21397 1-527): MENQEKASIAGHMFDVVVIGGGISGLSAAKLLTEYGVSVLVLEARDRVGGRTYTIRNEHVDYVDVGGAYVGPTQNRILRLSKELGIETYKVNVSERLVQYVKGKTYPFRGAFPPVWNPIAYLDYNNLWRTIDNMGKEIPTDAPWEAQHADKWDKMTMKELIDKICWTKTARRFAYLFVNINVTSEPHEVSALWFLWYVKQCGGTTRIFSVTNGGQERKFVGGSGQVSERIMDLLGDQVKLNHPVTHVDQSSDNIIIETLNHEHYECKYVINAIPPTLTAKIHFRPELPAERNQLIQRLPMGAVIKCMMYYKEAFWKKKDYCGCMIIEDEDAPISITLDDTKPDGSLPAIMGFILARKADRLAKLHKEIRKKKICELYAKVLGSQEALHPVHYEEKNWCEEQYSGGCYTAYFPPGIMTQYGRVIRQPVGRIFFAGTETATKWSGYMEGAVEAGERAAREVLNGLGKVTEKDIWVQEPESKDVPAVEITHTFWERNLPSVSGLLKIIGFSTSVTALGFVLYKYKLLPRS
The experiment in a line: MAO-A inhibition, H2O2/horseradish peroxidase coupled fluorescence assay with tyramine. Format: biochemical. The conditions noted are these: for inhibition at 10 µM: read-out: % inhibition at 10 μM hMAO-A, 10 μM compound, tyramine 0.8 mM (2 × KM), average of two independent experiments; for IC50 (μM) hMAO-A / IC50: tyramine at 2 × KM, seven concentrations 0.01–300 µM, ± s.d., two independent experiments; for IC50: read-out: IC50 (μM) hMAO-A; for inhibition of MAO-A compared with MAO-B in the screen: screen at 10 µM; for selectivity MAO-A versus MAO-B: from IC50 values on MAO-A and MAO-B. The method, then: (§1) Incomplete inhibition of activity could arise either from indirect effects on these enzymes or from the compounds acting as substrates at the highest concentrations.
(§2) The activity of MAO was determined using the coupled assay method of [41, 42] in which the product, H2O2, acts with horseradish peroxidase to convert 10-acetyl-3,7-dihydroxyphenoxazine to the fluorescent resorufin. […] The data were analysed using the equation for a three-parameter curve in Graphpad PRISM v. 4, and the % inhibition calculated from the top and bottom of the resulting curve.

Series [2] concerns the target T2, membrane-bound human MAO-B (Homo sapiens, UniProt P27338).
T2 sequence (P27338 1-520): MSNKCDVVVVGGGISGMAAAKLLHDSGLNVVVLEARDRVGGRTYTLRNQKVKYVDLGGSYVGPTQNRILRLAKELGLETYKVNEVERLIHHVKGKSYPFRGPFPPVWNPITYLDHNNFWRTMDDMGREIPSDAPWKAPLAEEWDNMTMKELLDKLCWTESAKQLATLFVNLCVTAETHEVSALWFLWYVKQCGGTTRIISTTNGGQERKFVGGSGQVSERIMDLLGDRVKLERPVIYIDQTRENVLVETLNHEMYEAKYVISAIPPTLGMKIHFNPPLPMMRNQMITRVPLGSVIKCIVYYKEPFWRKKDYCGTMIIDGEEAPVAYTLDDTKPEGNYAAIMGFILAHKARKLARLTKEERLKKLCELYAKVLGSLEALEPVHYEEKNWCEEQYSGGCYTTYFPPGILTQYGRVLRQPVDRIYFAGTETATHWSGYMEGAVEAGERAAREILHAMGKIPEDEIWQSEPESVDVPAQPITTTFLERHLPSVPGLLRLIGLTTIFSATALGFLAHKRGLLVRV
The experiment in a line: MAO-B inhibition, H2O2/horseradish peroxidase coupled fluorescence assay with tyramine. Format: biochemical. The conditions noted are these: for inhibition at 10 µM: read-out: % inhibition at 10 μM hMAO-B, 10 μM compound, tyramine 0.32 mM (2 × KM), average of two independent experiments; for IC50 / IC50 (μM) hMAO-B: tyramine at 2 × KM, seven concentrations 0.01–300 µM, ± s.d., two independent experiments; for IC50: read-out: IC50 (μM) hMAO-B; for maximum inhibition (%) hMAO-B: from dose–response curve, in parentheses after IC50, given if less than 95%; for mechanism of inhibition of MAO-B: 30 min preincubation, dilution ×100, increasing substrate concentration. As to the method:
as §1, §2

Where “and” joins values, the source holds several entries; their conditions need not be identical. Identical values can stand only once. Entries after “also recorded” stand apart in the source; their conditions may differ.

The inhibition is the change of the read-out against control, counted positive when it falls. One may read the IC50 as the point on the concentration scale where inhibition reaches its midpoint. Consider `COc1ccc2c(c1)[nH]c1c(C)nccc12` [harmine, reference compound], for which the inhibition at 10 µM is 100% in series [1] and 17% in series [2]. For the same molecule, in series [2], the IC50 is 11.6 ± 3.1 µM.

As to `COC(=O)CN1C(=O)c2ccccc2NC1c1ccccc1` (centres unmarked) [3a, Methyl-2-(4-oxo-2-phenyl-1,2-dihydroquinazolin-3(4H)-yl)acetate], in series [1], the inhibition at 10 µM is -6% and the “IC50 (μM) hMAO-A” value is on record as “none”. Besides, in series [2], the “maximum inhibition (%) hMAO-B” value is reported as 40%, the inhibition at 10 µM was found to be 38% and the IC50 turned out to be 5.28 ± 1.44 µM.

One may read the melting point as the temperature, or range, at which the solid turns liquid. In turn, `COc1ccccc1C1Nc2ccc(Cl)cc2C(=O)N1CC(=O)NN` (centres unmarked) [4d, 2-(6-Chloro-2-(2-methoxyphenyl)-4-oxo-1,2-dihydroquinazolin-3(4H)-yl)acetohydrazide] registered a melting point of 149 to 151 °C. In addition, the inhibition at 10 µM in series [1] turned out to be 0%. The inhibition at 10 µM in series [2] is 28%.

Regarding `O=C(CN1C(=O)c2cc(Cl)ccc2NC1c1ccccc1)NN=Cc1ccccc1` (centres unmarked) [5e, N'-Benzylidene-2-(6-chloro-4-oxo-2-phenyl-1,4-dihydroquinazolin-3(2H)-yl)acetohydrazide], the melting point was 266 to 270 °C. Further, the inhibition at 10 µM in series [1] came out at 10%. In addition, in series [2], the inhibition at 10 µM is 19%.

`COc1cc(C=NNC(=O)Cn2c(C)nc3ccccc3c2=O)ccc1O` [12d, N'-(4-Hydroxy-3-methoxybenzylidene)-2-(2-methyl-4-oxoquinazolin-3(4H)-yl)acetohydrazide] had a melting point of 258 to 260 °C. For the same molecule, the “mechanism of inhibition of MAO-A” value in series [1] (30 min preincubation, dilution ×100, increasing substrate concentration) was “competitive inhibition”. The “maximum inhibition (%) hMAO-A” value in series [1] (from dose–response curve, in parentheses after IC50, given if less than 95%) turned out to be 32%. Also, in series [1], the inhibition at 10 µM was found to be 27% and the IC50 came out at 1.41 ± 0.47 µM. In series [2], the “mechanism of inhibition of MAO-B” value is given as “competitive inhibition”, the “maximum inhibition (%) hMAO-B” value is given as “full inhibition”, the inhibition at 10 µM stood at 52% and the “IC50 (μM) hMAO-B” value is listed as “micromolar affinity”. In addition, in series [2], the IC50 worked out at 3.62 ± 0.69 µM.

In turn, `Cc1nc2ccccc2c(=O)n1CC(=O)NN=Cc1ccc(O)cc1` [12b, N'-(4-Hydroxybenzylidene)-2-(2-methyl-4-oxoquinazolin-3(4H)-yl)acetohydrazide] showed a melting point of 192 to 195 °C. Also, in series [1], the inhibition at 10 µM is 16%; the “inhibition of MAO-A compared with MAO-B in the screen” value is “equal inhibition of MAO-A and MAO-B; also recorded: equally inhibited”. For the same molecule, in series [2], the inhibition at 10 µM is 16% and the IC50 is more than 100 µM.

Take `NNC(=O)CN1C(=O)c2cc(Cl)ccc2NC1c1ccccc1` (centres unmarked) [4b, 2-(6-Chloro-4-oxo-2-phenyl-1,2-dihydroquinazolin-3(4H)-yl)acetohydrazide]: the melting point fell in the range of 184 to 185 °C. Further, the inhibition at 10 µM in series [1] turned out to be 6%. Besides, the inhibition at 10 µM in series [2] turned out to be 31%.

Take `COc1cc(/C=N/n2c(C)nc3ccccc3c2=O)ccc1O` [14d]: the inhibition at 10 µM in series [1] was determined as 11%. In series [2], the “maximum inhibition (%) hMAO-B” value is reported as 77%, the inhibition at 10 µM amounted to 44% and the IC50 was found to be 5.93 ± 1.02 µM.

`O=C(CN1C(=O)c2ccccc2NC1c1ccccc1)NN=Cc1ccc(O)cc1` (centres unmarked) [5b, N'-(4-Hydroxybenzylidene)-2-(4-oxo-2-phenyl-1,2-dihydroquinazolin-3(4H)-yl)acetohydrazide] returned a melting point of 230 to 232 °C. For the same molecule, in series [1], the inhibition at 10 µM was 6% and the “IC50 (μM) hMAO-A” value is recorded as “none”. In series [2], the inhibition at 10 µM was determined as 36% and the IC50 stood at 83 µM.

Regarding `COc1ccc(C=NNC(=O)Cn2c(C)nc3ccccc3c2=O)cc1` [12c, N'-(4-Methoxybenzylidene)-2-(2-methyl-4-oxoquinazolin-3(4H)-yl)acetohydrazide], the melting point was > 229 °C (dec.). In series [1], the inhibition at 10 µM was 5%. In addition, the inhibition at 10 µM in series [2] was 21%.

On to `Cc1nc2ccccc2c(=O)n1CC(=O)NN` [compound 11, 2-(2-Methyl-4-oxoquinazolin-3(4H)-yl)acetohydrazide], for which, in series [1], the inhibition at 10 µM was 15%; the “inhibition of MAO-A compared with MAO-B in the screen” value is “equal inhibition of MAO-A and MAO-B; also recorded: equally inhibited”. Besides, in series [2], the inhibition at 10 µM came out at 19% and the IC50 is more than 100 µM.

`O=C(CN1C(=O)c2cc(Cl)ccc2NC1c1ccccc1)NN=Cc1ccc(O)cc1` (centres unmarked) [5g, 2-(6-Chloro-4-oxo-2-phenyl-1,4-dihydroquinazolin-3(2H)-yl)-N'-(4-hydroxybenzylidene)acetohydrazide] had a melting point of 236 to 240 °C. Further, in series [1], the “selectivity MAO-A versus MAO-B” value is reported as “A-selective”, the inhibition at 10 µM worked out at 22%, the “IC50 (μM) hMAO-A” value was “micromolar potency” and the IC50 is 4.34 ± 1.31 µM. In series [2], the “maximum inhibition (%) hMAO-B” value is “full inhibition”, the inhibition at 10 µM was determined as 36%, the “IC50 (μM) hMAO-B” value is recorded as “micromolar affinity” and the IC50 was 11 ± 4 µM.

`COc1ccc(C=NNC(=O)CN2C(=O)c3cc(Cl)ccc3NC2c2ccccc2)cc1` (centres unmarked) [5f, 2-(6-Chloro-4-oxo-2-phenyl-1,4-dihydroquinazolin-3(2H)-yl)-N'-(4-methoxybenzylidene)-acetohydrazide] yielded a melting point of 138 to 140 °C.

The molecule `COc1ccc(C=NNC(=O)CN2C(=O)c3ccccc3NC2c2ccccc2)cc1` (centres unmarked) [5c, N'-(4-Methoxybenzylidene)-2-(4-oxo-2-phenyl-1,2-dihydroquinazolin-3(4H)-yl)acetohydrazide] had a melting point of 210 to 212 °C.

`C[C@H](NCc1ccc(OCc2cccc(F)c2)cc1)C(N)=O` [safinamide, reference compound]: the inhibition at 10 µM in series [1] was 11%.

As for `Cc1nc2ccccc2c(=O)n1/N=C/c1ccc(O)cc1` [14b], in series [1], the “selectivity MAO-A versus MAO-B” value is on record as “B-selective”, the inhibition at 10 µM turned out to be 14% and the “IC50 (μM) hMAO-A” value is “no inhibition”. In series [2], the “mechanism of inhibition of MAO-B” value was “competitive inhibition”, the “maximum inhibition (%) hMAO-B” value came to 77%, the inhibition at 10 µM is 52% and the IC50 came to 4.64 ± 0.41 µM.

For the molecule `Cc1nc2ccccc2c(=O)n1/N=C/c1ccccc1` [14a], in series [1], the inhibition at 10 µM turned out to be 5% and the “IC50 (μM) hMAO-A” value is on record as “does not inhibit MAO-A”. In addition, in series [2], the “maximum inhibition (%) hMAO-B” value was 77%; the inhibition at 10 µM turned out to be 40%; the IC50 is < 10 µM and 6.84 µM.

For `COc1ccc(/C=N/n2c(C)nc3ccccc3c2=O)cc1` [14c], in series [1], the inhibition at 10 µM was 8%. In series [2], the “maximum inhibition (%) hMAO-B” value turned out to be 73%, the inhibition at 10 µM came to 44% and the IC50 stood at 6.75 ± 1.06 µM.

Take `Cc1nc2ccccc2c(=O)n1N` [compound 13]: the values for the inhibition at 10 µM in series [1] and in series [2] were -8% and 23%, respectively.

Consider `COC(=O)Cn1c(-c2ccccc2)nc2ccccc2c1=O` [compound 8, Methyl 2-(4-oxo-2-phenylquinazolin-3(4H)-yl)acetate], for which the melting point fell in the range of 115 to 116 °C.

On to `NNC(=O)Cn1c(-c2ccccc2)nc2ccccc2c1=O` [compound 7, 2-(4-oxo-2-phenylquinazolin-3(4H)-yl)acetohydrazide], for which the melting point was in the range of 215 to 218 °C.
